Two substances from patent US9028797B2, “Composite body for antigen or drug delivery” (priority 2010, dated 2015) can be followed below.

Experiment [1] has as its system dendritic cell line, DC2.4 cell. The experiment in a line: Cellular uptake of fluorescently labeled BSA, fluorescence microscopy (Example 3). The format is cell-based. As to conditions: incubated 2 hr, imaged 22 hr later. How it is done: As a model protein, bovine serum albumin (BSA) was fluorescently labeled with rhodamine B isothiocyanate and used. A BSA/BAC/γ-PGA complex prepared using benzalkonium chloride (BAC) and γ-PGA with BSA or BSA was added to a dendritic cell line, DC2.4 cell, and the mixture was incubated for 2 hr. The cells were washed and fluorescence images of the cell were measured by a fluorescence microscope 22 hr later.

Experiment [2] deals with OVA-expressing cancer cell (EG7). The experiment in a line: Tumor growth of intradermally transplanted OVA-expressing cancer cell after immunization (Example 14). Conditions: EG7 intradermally transplanted 2 weeks after final immunization. The format is in vivo, mice. The protocol: OVA/BK/γ-PGA complex was constructed using ovalbumin (OVA), benzalkonium chloride (BK) and γ-PGA. To the mice were administered OVA alone, benzalkonium chloride and γ-PGA (vector alone), and OVA/BK/γ-PGA complex every other week, 4 times in total. After 2 weeks from the final immunization, OVA-expressing cancer cell (EG7) was intradermally transplanted, and the tumor growth after transplantation was observed.

In the next experiment the test system is OVA. The experiment in a line: Antibody titer to OVA by ELISA in serum of immunized mice (Example 13). The format is in vivo. Conditions: mouse serum 2 weeks after final immunization; every other week, 4 times. How it is done:
OVA/BK/γ-PGA complex was constructed using ovalbumin (OVA), benzalkonium chloride (BK) and γ-PGA. OVA alone, benzalkonium chloride and γ-PGA (vector alone), and OVA/BK/γ-PGA complex were administered to mice every other week, 4 times in total for immunization. After 2 weeks from the final immunization, the serum was collected, and the antibody titer to OVA was measured by ELISA. For the measurement of the antibody titer, an HRP-labeled goat-derived anti-mouse IgG antibody was used as the secondary antibody.

On to bovine serum albumin [BSA], for which the “cellular uptake by dendritic cell (fluorescence of BSA)” value in experiment [1] is reported as “not observed”.

For the substance ovalbumin [ovalbumin antigen alone], in experiment [2], the “tumor growth suppressive effect” value is given as “did not show a tumor growth suppressive effect”. The “antibody titer to OVA (immunity induction effect)” value in the experiment with OVA is reported as “did not show an immunity induction effect”.
